# Measured values reported in patent US6737383B1, “Herbicidal oxadiazolidines” (priority 1999, dated 2004).
# Experiments:
# duck salad = assay: Test B flood test duck salad; assay type: in vivo, Heteranthera limosa
# Method in brief: (§1)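 Each value is a visual injury score relative to controls, with 10 meaning complete control and 0 no effect. Evaluation took place twelve to sixteen days after the 2-leaf-stage plants were treated and kept in the greenhouse.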
# bedstraw = assay: Test B pre/postemergence bedstraw; assay type: in vivo, Galium aparine
# Method in brief: (§2)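 Herbicidal effect was estimated by eye on a ten-point control scale after plants spent twelve to sixteen days in a greenhouse following soil or foliar treatment. Foliar sprays targeted plants at one to four leaves; all doses were formulated in a non-phytotoxic solvent with surfactant.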
# rape = assay: Test B pre/postemergence rape; assay type: in vivo, Brassica napus
# Method in brief: as §2
# smallflower flatsedge = assay: Test B flood test smallflower flatsedge; assay type: in vivo, Cyperus difformis
# Method in brief: as §1
# soybean = assay: Test B pre/postemergence soybean; assay type: in vivo, Glycine max
# Method in brief: as §2
# purple nutsedge = assay: Test B pre/postemergence purple nutsedge; assay type: in vivo, Cyperus rotundus
# Method in brief: as §2
# rice = assay: Test B flood test rice; assay type: in vivo, Oryza sativa
# Method in brief: as §1
# cocklebur = assay: Test B pre/postemergence cocklebur; assay type: in vivo, Xanthium strumarium
# Method in brief: as §2
# surinam grass = assay: Test B pre/postemergence surinam grass; assay type: in vivo, Brachiaria decumbens
# Method in brief: as §2
# wheat = assay: Test B pre/postemergence wheat; assay type: in vivo, Triticum aestivum
# Method in brief: as §2
# crabgrass = assay: Test B pre/postemergence crabgrass; assay type: in vivo, Digitaria sanguinalis
# Method in brief: as §2
# sugar beet = assay: Test B pre/postemergence sugar beet; assay type: in vivo, Beta vulgaris
# Method in brief: as §2
# corn = assay: Test B pre/postemergence corn; assay type: in vivo, Zea mays
# Method in brief: as §2
# blackgrass = assay: Test B pre/postemergence blackgrass; assay type: in vivo, Alopecurus myosuroides
# Method in brief: as §2
# bamyardgrass = assay: Test B flood test barnyardgrass; assay type: in vivo, Echinochloa crus-galli
# Method in brief: as §1
# velvetleaf = assay: Test B pre/postemergence velvetleaf; assay type: in vivo, Abutilon theophrasti
# Method in brief: as §2
# giant foxtail = assay: Test B pre/postemergence giant foxtail; assay type: in vivo, Setaria faberii
# Method in brief: as §2
# [1] = Rate 62 g/ha, headed Pre-emergence (flood test species), scale 0 to 10 (0 no effect, 10 complete control)
# [2] = Rate 125 g/ha, Pre-emergence, flood test species, scale 0 to 10 where 0 is no effect and 10 is complete control
# [3] = Rate 250 g/ha, Pre-emergence, flood-test species, scale 0 to 10, 0 is no effect, 10 is complete control
# [4] = Rate 500 g/ha, Pre-emergence, flood test species, scale 0 to 10 (0 no effect, 10 complete control)
# [5] = Preemergence, Rate 62 g/ha, scale of 0 to 10 where 0 is no effect and 10 is complete control
# [6] = Preemergence, Rate 250 g/ha, scale of 0 to 10 where 0 is no effect and 10 is complete control
# [7] = Preemergence, Rate 500 g/ha, scale of 0 to 10 where 0 is no effect and 10 is complete control
# [8] = Rate 62 g/ha, Postemergence, scale of 0 to 10 where 0 is no effect and 10 is complete control
# [9] = Rate 125 g/ha, Postemergence, scale 0 to 10
# [10] = Rate 125 g/ha, Preemergence, scale of 0 to 10 where 0 is no effect and 10 is complete control
# [11] = Rate 500 g/ha, Postemergence, scale 0 to 10, 0 no effect, 10 complete control
compound,measurement,setting,value
CC(C)N(C(=O)n1oc(=O)n(C2CC2)c1=O)c1ccc(F)cc1 [Compound 242],Ducksalad plant response rating,duck salad; [1],0
same,Ducksalad plant response rating,duck salad; [2],0
same,Ducksalad plant response rating,duck salad; [3],0
same,Ducksalad plant response rating,duck salad; [4],0
same,Bedstraw plant response rating,bedstraw; [5],0
same,Bedstraw plant response rating,bedstraw; [6],9
same,"Plant response rating, Bedstraw",bedstraw; [7],10
same,Bedstraw plant response rating,bedstraw; [8],2
same,Bedstraw plant response rating,bedstraw; [9],5
same,Bedstraw plant response rating,bedstraw; [10],7
same,"Plant response rating (0 to 10; 0 is no effect, 10 is complete control), Bedstraw","bedstraw; Rate 250 g/ha, Postemergence",7
same,Bedstraw plant response rating,bedstraw; [11],8
same,Rape plant response rating,rape; [5],0
same,Rape plant response rating,rape; [6],10
same,"Plant response rating, Rape",rape; [7],10
same,Rape plant response rating,rape; [8],0
same,Rape plant response rating,rape; [10],6
same,"Plant response rating (0 to 10; 0 is no effect, 10 is complete control), Rape","rape; Rate 250 g/ha, Postemergence",4
same,Rape plant response rating,rape; [11],8
same,S. Flatsedge plant response rating,smallflower flatsedge; [1],0
same,S. Flatsedge plant response rating,smallflower flatsedge; [2],0
same,S. Flatsedge plant response rating,smallflower flatsedge; [3],0
same,S. Flatsedge plant response rating,smallflower flatsedge; [4],0
same,Soybean plant response rating,soybean; [5],0
same,Soybean plant response rating,soybean; [6],6
same,"Plant response rating, Soybean",soybean; [7],7
same,Soybean plant response rating,soybean; [8],4
same,Soybean plant response rating,soybean; [10],2
same,Soybean plant response rating,soybean; [11],6
same,Nutsedge plant response rating,purple nutsedge; [5],10
same,Nutsedge plant response rating,purple nutsedge; [6],10
same,"Plant response rating, Nutsedge",purple nutsedge; [7],10
same,Nutsedge plant response rating,purple nutsedge; [8],0
same,Nutsedge plant response rating,purple nutsedge; [10],10
same,Nutsedge plant response rating,purple nutsedge; [11],5
same,Rice plant response rating,rice; [1],0
same,Rice plant response rating,rice; [2],0
same,Rice plant response rating,rice; [3],0
same,Rice plant response rating,rice; [4],0
same,Cocklebur plant response rating,cocklebur; [5],2
same,Cocklebur plant response rating,cocklebur; [6],2
same,"Plant response rating, Cocklebur",cocklebur; [7],3
same,Cocklebur plant response rating,cocklebur; [8],5
same,Cocklebur plant response rating,cocklebur; [9],5
same,"Plant response rating (0 to 10; 0 is no effect, 10 is complete control), Cocklebur","cocklebur; Rate 250 g/ha, Postemergence",7
same,Cocklebur plant response rating,cocklebur; [11],7
same,B. signalgrass plant response rating,surinam grass; [5],6
same,B. signalgrass plant response rating,surinam grass; [6],9
same,"Plant response rating, B. signalgrass",surinam grass; [7],10
same,B. signalgrass plant response rating,surinam grass; [8],1
same,B. signalgrass plant response rating,"surinam grass; Rate 125 g/ha, Postemergence, scale 0 (no effect) to 10 (complete control)",8
same,B. signalgrass plant response rating,surinam grass; [10],9
same,"Plant response rating (0 to 10; 0 is no effect, 10 is complete control), B. signalgrass","surinam grass; Rate 250 g/ha, Postemergence",8
same,B. signalgrass plant response rating,surinam grass; [11],9
same,Wheat plant response rating,wheat; [5],5
same,Wheat plant response rating,wheat; [6],9
same,"Plant response rating, Wheat",wheat; [7],10
same,Wheat plant response rating,wheat; [8],4
same,Wheat plant response rating,wheat; [10],7
same,Wheat plant response rating,wheat; [11],8
same,Crabgrass plant response rating,crabgrass; [5],9
same,Crabgrass plant response rating,crabgrass; [6],10
same,"Plant response rating, Crabgrass",crabgrass; [7],10
same,Crabgrass plant response rating,crabgrass; [8],8
same,Crabgrass plant response rating,crabgrass; [10],10
same,"Plant response rating (0 to 10; 0 is no effect, 10 is complete control), Crabgrass","crabgrass; Rate 250 g/ha, Postemergence",9
same,Crabgrass plant response rating,crabgrass; [11],9
same,Sugarbeets plant response rating,sugar beet; [5],3
same,"Plant response rating, Sugarbeets",sugar beet; [7],8
same,Sugarbeets plant response rating,sugar beet; [8],0
same,Sugarbeets plant response rating,sugar beet; [10],7
same,Sugarbeets plant response rating,sugar beet; [11],8
same,Corn plant response rating,corn; [5],0
same,Corn plant response rating,corn; [6],6
same,"Plant response rating, Corn",corn; [7],9
same,Corn plant response rating,corn; [8],0
same,Corn plant response rating,corn; [10],0
same,"Plant response rating (0 to 10; 0 is no effect, 10 is complete control), Corn","corn; Rate 250 g/ha, Postemergence",0
same,Corn plant response rating,corn; [11],6
same,Blackgrass plant response rating,blackgrass; [5],9
same,Blackgrass plant response rating,blackgrass; [6],10
same,"Plant response rating, Blackgrass",blackgrass; [7],10
same,Blackgrass plant response rating,blackgrass; [8],8
same,Blackgrass plant response rating,blackgrass; [9],9
same,Blackgrass plant response rating,blackgrass; [10],10
same,"Plant response rating (0 to 10; 0 is no effect, 10 is complete control), Blackgrass","blackgrass; Rate 250 g/ha, Postemergence",9
same,Blackgrass plant response rating,blackgrass; [11],9
same,Barnyardgrass plant response rating,bamyardgrass; [1],0
same,Barnyardgrass plant response rating,bamyardgrass; [2],0
same,Barnyardgrass plant response rating,bamyardgrass; [3],0
same,Barnyardgrass plant response rating,bamyardgrass; [4],0
same,Velvetleaf plant response rating,velvetleaf; [5],6
same,Velvetleaf plant response rating,velvetleaf; [6],8
same,"Plant response rating, Velvetleaf",velvetleaf; [7],10
same,Velvetleaf plant response rating,velvetleaf; [8],3
same,Velvetleaf plant response rating,velvetleaf; [10],8
same,Velvetleaf plant response rating,velvetleaf; [11],7
same,Giant foxtail plant response rating,giant foxtail; [5],10
same,Giant foxtail plant response rating,giant foxtail; [6],10
same,"Plant response rating, Giant foxtail",giant foxtail; [7],10
same,Giant foxtail plant response rating,giant foxtail; [8],7
same,Giant foxtail plant response rating,giant foxtail; [10],10
same,"Plant response rating (0 to 10; 0 is no effect, 10 is complete control), Giant foxtail","giant foxtail; Rate 250 g/ha, Postemergence",8
same,Giant foxtail plant response rating,giant foxtail; [11],9
